The record followed here is ChEMBL document CHEMBL1136959, “Hit-to-lead optimization of pyrrolo[1,2-a]quinoxalines as novel cannabinoid type 1 receptor antagonists” (Bioorg Med Chem Lett, 2009).

pKi: −log10 of the molar value.

For one experiment, the target named is Cannabinoid receptor 1 (Rattus norvegicus, UniProt P20272). Kind of experiment: Displacement of [3H]SR141716A from CB1 receptor in rat cerebellum membrane. In kind it is cell membranes. (In general: Displacement assays read how much labelled ligand stays bound in the presence of the test substance.)
Sequence of Cannabinoid receptor 1 (P20272 whole entry): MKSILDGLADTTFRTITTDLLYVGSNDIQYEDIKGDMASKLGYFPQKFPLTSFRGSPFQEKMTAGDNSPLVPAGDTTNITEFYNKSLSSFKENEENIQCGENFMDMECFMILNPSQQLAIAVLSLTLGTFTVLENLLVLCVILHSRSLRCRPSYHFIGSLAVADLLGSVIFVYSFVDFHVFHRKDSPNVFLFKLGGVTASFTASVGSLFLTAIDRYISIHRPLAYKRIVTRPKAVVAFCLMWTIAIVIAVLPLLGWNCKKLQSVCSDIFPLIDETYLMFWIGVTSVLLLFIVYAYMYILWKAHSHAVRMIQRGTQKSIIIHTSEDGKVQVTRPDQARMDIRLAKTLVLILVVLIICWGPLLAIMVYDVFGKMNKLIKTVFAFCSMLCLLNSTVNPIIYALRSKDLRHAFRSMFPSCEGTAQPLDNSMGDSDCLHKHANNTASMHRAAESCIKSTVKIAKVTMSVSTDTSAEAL
By pKi is commonly meant −log10 of the Ki, conventionally taken in molar units. Lower therefore signals a high Ki. Compound `CCCCN(CC(=O)N1c2ccccc2-n2cccc2C1c1ccc(Cl)cc1)C(=O)C(C)Cl` (centres undefined) showed a negative logarithm of the Ki (pKi) of 7.35.
The compound `CCCCN(CC(=O)N1c2ccccc2-n2cccc2C1c1ccc(OC)cc1)C(=O)C(C)Cl` (centres undefined) had a pKi of 7.34.
Same read-out and setting: for `CCCCN(CC(=O)N1c2ccccc2-n2cccc2C1c1ccc(OC)cc1)C(=O)c1ccccc1Cl` (centres undefined) the value was 6.86; for `COc1ccc(C2c3cccn3-c3ccccc3N2C(=O)CN(C(=O)C(C)Cl)C(C)C)cc1` (centres undefined), 6.66; for `CCCCN(CC(=O)N1c2ccccc2-n2cccc2C1c1ccc(F)cc1)C(=O)C(C)Cl` (centres undefined), 6.79.
`CCCCN(CC(=O)N1c2ccccc2-n2cccc2C1c1ccccc1)C(=O)C(C)Cl` (centres undefined): the pKi is 6.59.
Compound `CCCCN(CC(=O)N1c2ccccc2-n2cccc2C1c1ccc(OC)cc1)C(=O)c1cc(Cl)cc(Cl)c1` (centres undefined) had a negative logarithm of the Ki (pKi) of 6.08.
On to `CCCCN(CC(=O)N1c2ccccc2-n2cccc2C1c1ccc(OC)cc1)C(=O)CC` (centres undefined), for which the negative-log Ki (pKi) is 6.27.
`CCCCN(CC(=O)N1c2ccccc2-n2cccc2C1c1ccc(OC)cc1)C(=O)C1CC1` (centres undefined) gave a negative logarithm of the Ki (pKi) of 7.11.
Consider `CCCCN(CC(=O)N1c2ccccc2-n2cccc2C1c1ccc(OC)cc1)C(=O)c1ccccc1C` (centres undefined), for which the negative-log Ki (pKi) was 6.30.
Same read-out and setting: for `CCCCN(CC(=O)N1c2ccccc2-n2cccc2C1c1ccc(OC)cc1)C(=O)CC(C)C` (centres undefined) the value was 6.63.
Take `CCCCN(CC(=O)N1c2ccccc2-n2cccc2C1c1ccc(OC)cc1)C(=O)COC` (centres undefined): the negative logarithm of the Ki (pKi) was 6.34.
Still for that read-out and setting: for `CCCCN(CC(=O)N1c2ccccc2-n2cccc2C1c1ccc(OC)cc1)C(=O)c1ccccc1F` (centres undefined) the value was 6.46; for `CCCCN(CC(=O)N1c2ccccc2-n2cccc2C1c1ccc(OC)cc1)C(=O)C(C)C` (centres undefined), 6.91; for `CCCCN(CC(=O)N1c2ccccc2-n2cccc2C1c1ccc(OC)cc1)C(=O)C1CCCC1` (centres undefined), 6.22.
In turn, `CCCCN(CC(=O)N1c2ccccc2-n2cccc2C1c1ccc(OC)cc1)C(=O)C1CCC1` (centres undefined) had a pKi of 6.67.

The target in a further experiment is Cannabinoid receptor 1 (Rattus norvegicus) (UniProt P20272). Kind of experiment: Displacement of [3H]SR141716A from CB1 receptor in rat cerebellum membrane at 1 uM. In kind it is cell membranes.
Sequence of Cannabinoid receptor 1 (Rattus norvegicus) (P20272 whole entry): as above
For orientation: inhibition means the drop in the measured response relative to a control, in per cent. Turning to `COc1ccc(C2c3cccn3-c3ccccc3N2C(=O)CN(C(=O)C(C)Cl)C2CC2)cc1` (centres undefined), the inhibition worked out at 40%.
The same measure, in the same setting: the value for `CCCCN(CC(=O)N1c2ccccc2-n2cccc2C1c1cc(OC)ccc1OC)C(=O)C(C)Cl` (centres undefined) was 45%.
The compound `COc1ccc(C2c3cccn3-c3ccccc3N2C(=O)CNC(=O)C(C)Cl)cc1` (centres undefined) registered an inhibition of 25%.
Regarding `COc1ccc(C2c3cccn3-c3ccccc3N2C(=O)CN(C)C(=O)C(C)Cl)cc1` (centres undefined), the inhibition worked out at 46%.
On the same count and under the same terms, the value for `CCCCN(CC(=O)N1c2ccccc2-n2cccc2C1c1ccccc1OC)C(=O)C(C)Cl` (centres undefined) was 36%; that for `CCCCN(CC(=O)N1c2ccccc2-n2cccc2C1c1ccc(OC)cc1)C(C)=O` (centres undefined) was 31%.
`CCCCN(CC(=O)N1c2ccccc2-n2cccc2C1C)C(=O)C(C)Cl` (centres undefined) gave an inhibition of 15%.
Compound `CCCCN(CC(=O)N1c2ccccc2-n2cccc2C1CC)C(=O)C(C)Cl` (centres undefined) registered an inhibition of 14%.
